Test results published in the SangsterLogP compilation.

Structure (SMILES)	logP
O=C1CC(Oc2ccc(C(=O)CCc3ccccc3)cc2)N1 (stereo unspecified)	2.48
CCOC(=O)CN1C(=O)CC1Oc1ccc(C(=O)c2ccccc2)cc1 (stereo unspecified)	3
O=C1CC(Oc2ccccc2)N1 (stereo unspecified)	1.94
O=C1CC(Oc2ccc(-c3ccccc3)cc2)N1 (stereo unspecified)	2.61
O=C1CC(Oc2cccc3ccccc23)N1 (stereo unspecified)	2.66
O=C1CC(Sc2ccc3ccccc3c2)N1 (stereo unspecified)	2.64
CCOC(=O)CN1C(=O)CC1Sc1ccc2ccccc2c1 (stereo unspecified)	3.4
O=C1CC(Oc2ccc3ccccc3c2)N1 (stereo unspecified)	2.29
O=C1CC(Oc2ccc(C(=O)c3ccccc3)cc2)N1 (stereo unspecified)	2.14
O=C1CC(Oc2ccc(C(=O)/C=C/c3ccccc3)cc2)N1 (stereo unspecified)	2.56
O=C1C[C@@H](Sc2ccccc2)N1	1.91
CCOC(=O)CN1C(=O)CC1Oc1ccc(C(=O)C=Cc2ccccc2)cc1 (stereo unspecified)	3.3
O=C1CC(Oc2ccc([N+](=O)[O-])cc2)N1 (stereo unspecified)	1.85
O=C1CC(Oc2ccccc2C(=O)c2ccccc2)N1 (stereo unspecified)	1.83
CC(C)(C)OC(=O)CN1C(=O)CC1Oc1ccc2ccccc2c1 (stereo unspecified)	3.6
O=C1CC(Sc2ccc(Cl)cc2)N1 (stereo unspecified)	2.31
O=C1CC(Sc2ccccc2C(=O)OCc2ccccc2)N1 (stereo unspecified)	2.62
O=C1CC(Sc2ccccn2)N1 (stereo unspecified)	1.81
O=C1CC(Oc2c3ccccc3cc3ccccc23)N1 (stereo unspecified)	3.08
CCOC(=O)CN1C(=O)CC1Oc1ccc2ccccc2c1 (stereo unspecified)	2.8
O=C1CC(Oc2cccc(C(=O)OCc3ccccc3)c2)N1 (stereo unspecified)	2.83
